Assay results: ChEMBL document CHEMBL5532638, “Current development of 1,2,3-triazole derived potential antimalarial scaffolds: Structure- activity relationship (SAR) and bioactive compounds” (Eur J Med Chem, 2023)

How the values were obtained:
Plasmodium falciparum [1] = test: Antiplasmodial activity against Plasmodium falciparum 3D7 infected in human red blood cells assessed as parasite growth inhibition incubated for 72 hrs by SYBR Green I staining based analysis; assay type: functional, organism-based, Red blood cell; conditions: 3D7, Erythrocyte
Plasmodium falciparum [2] = test: Antiplasmodial activity against CQ-resistant Plasmodium falciparum K1 infected in human O+ RBCs assessed as parasite growth inhibition incubated for 72 hrs by ELISA; assay type: functional, organism-based; conditions: K1, 72 h
Plasmodium falciparum [3] = test: Antimalarial activity against Plasmodium falciparum 3D7 assessed as parasite growth inhibition incubated for 42 hrs by [3H]-hypoxanthine incorporation assay; assay type: functional, organism-based
[4] = Cytotoxicity against human PC-3 cells incubated for 72 hrs by MTT assay; assay type: toxicity, cell-based
Plasmodium falciparum [5] = test: Antiplasmodial activity against Plasmodium falciparum infected in O+ RBCs assessed as parasite growth inhibition incubated for 36 to 40 hrs by JSB staining based analysis; assay type: functional, organism-based, RBC; conditions: Plasmodium falciparum, Erythrocyte; read-out: IC50
Plasmodium falciparum [6] = test: Antimalarial activity against CQ-resistant Plasmodium falciparum RKL-9 field isolate at asexual stage assessed as parasite growth inhibition incubated for 22 to 36 hrs by SMI assay; assay type: functional, organism-based
Plasmodium falciparum [7] = test: Antiplasmodial activity against Plasmodium falciparum K1 infected in O+ RBCs assessed as parasite growth inhibition incubated for 36 to 40 hrs by Geimsa staining based analysis; assay type: functional, organism-based, RBC; conditions: K1, Erythrocyte

Work on COc1ccc(-n2cc(/C=N/Nc3ccccc3)nn2)cc1 yielded an IC50 (Plasmodium falciparum [1]) of 4440 nM.
Cc1cccc(C)c1N/N=C/c1cn(-c2cc(Cl)cc(Cl)c2)nn1 gave an IC50 (Plasmodium falciparum [1]) of 2800 nM.
For O=C1C(Oc2ccccc2)C(c2ccccc2Cl)N1c1ccc(OCc2cn(Cc3ccccc3)nn2)cc1 (stereo not drawn), the IC50 (Plasmodium falciparum [2]) was 850 nM.
For C=CCn1cc(COc2ccc(C3C(Oc4ccccc4)C(=O)N3c3ccc(C)cc3)cc2)nn1 (stereo not drawn), the IC50 (Plasmodium falciparum [2]) was 850 nM.
COc1ccc2cc3[n+](cc2c1OCc1cn(-c2ccc(S(=O)(=O)Nc4nc(C)cc(C)n4)cc2)nn1)CCc1cc2c(cc1-3)OCO2.[Cl-] showed an IC50 (Plasmodium falciparum [3]) of 0.1 µg/mL and a CC50 at 72 h [4] of over 200 µg/mL.
Fc1ccc(N/N=C/c2cn(-c3ccc(Cl)cc3)nn2)cc1 gave an IC50 (Plasmodium falciparum [1]) of 8450 nM.
O/N=C/c1cn(-c2cc(Cl)ccc2Cl)nn1 showed an IC50 (Plasmodium falciparum [1]) of 2800 nM.
C=CCn1cc(COc2ccc(N3C(=O)C(Oc4ccccc4)C3c3ccc(C)cc3)cc2)nn1 (stereo not drawn) showed an IC50 (Plasmodium falciparum [2]) of 850 nM.
With COc1ccc(N2C(=O)C(Oc3ccccc3)C2c2ccc(OCc3cn(Cc4ccccc4)nn3)cc2)cc1OC (stereo not drawn) the IC50 (Plasmodium falciparum [2]) was 850 nM.
With O=C(Cn1cc(CSc2ccc(Cl)cc2)nn1)OCc1ccccc1 the IC50 (Plasmodium falciparum [5]) was 209 nM.
With CCCCCCCCCC(=O)OCc1cn(-c2cc(Cl)cc(Cl)c2)nn1 the IC50 (Plasmodium falciparum [1]) was 2800 nM.
In the case of Clc1ccc(-n2cc(/C=N/Nc3c(Cl)cccc3Cl)nn2)cc1, the IC50 (Plasmodium falciparum [1]) is reported as 2800 nM.
Clc1ccc(Cl)c(-n2cc(/C=N/Nc3c(Cl)cccc3Cl)nn2)c1 gave an IC50 (Plasmodium falciparum [1]) of 2800 nM.
O=C(Cn1cc(Oc2ccc(Cl)cc2)nn1)NCCNc1ccnc2cc(Cl)ccc12 showed an IC50 (Plasmodium falciparum [6]) of 8.5 nM.
With COc1ccc2cc3[n+](cc2c1OCc1cn(-c2ccc(S(=O)(=O)N4CCN(S(=O)(=O)c5ccc(-n6cc(COc7c(OC)ccc8cc9[n+](cc78)CCc7cc8c(cc7-9)OCO8)nn6)cc5)CC4)cc2)nn1)CCc1cc2c(cc1-3)OCO2.[Cl-].[Cl-] the IC50 (Plasmodium falciparum [3]) was 0.1 µg/mL and the CC50 at 72 h [4] was over 200 µg/mL.
Work on O=C(N/N=C/c1cnn(-c2ccccc2)n1)c1ccncc1 yielded an IC50 (Plasmodium falciparum [1]) of 2800 nM.
Clc1cc(Cl)cc(-n2cc(/C=N/Nc3c(Cl)cccc3Cl)nn2)c1 gave an IC50 (Plasmodium falciparum [1]) of 5560 nM.
For Cc1ccc(C2C(Oc3ccccc3)C(=O)N2c2ccc(OCc3cn(Cc4ccccc4)nn3)cc2)cc1 (stereo not drawn), the IC50 (Plasmodium falciparum [2]) was 850 nM.
CCOC(=O)c1cnn(-c2ccccc2)c1 gave an IC50 (Plasmodium falciparum [1]) of 2800 nM.
CCCCCCCCCC(=O)OCc1cn(-c2ccc(OC)cc2)nn1 gave an IC50 (Plasmodium falciparum [1]) of 2800 nM.
C=CCn1cc(COc2ccc(C3C(Oc4ccccc4)C(=O)N3c3ccc(OCc4cn(CC=C)nn4)cc3)cc2)nn1 (stereo not drawn) showed an IC50 (Plasmodium falciparum [2]) of 850 nM.
Work on Fc1ccc(N/N=C/c2cnn(-c3ccccc3)n2)cc1 yielded an IC50 (Plasmodium falciparum [1]) of 2800 nM.
Compound Cc1ccc(N2C(=O)C(Oc3ccccc3)C2c2ccc(OCc3cn(Cc4ccccc4)nn3)cc2)cc1 (stereo not drawn) has an IC50 (Plasmodium falciparum [2]) of 850 nM.
Compound CCOC(=O)Cn1cc(COc2ccc(C3C(Oc4ccc(Cl)cc4Cl)C(=O)N3c3ccc(OCc4cn(CC(=O)OCC)nn4)cc3)cc2)nn1 (stereo not drawn) has an IC50 (Plasmodium falciparum [2]) of 850 nM.
For C=CCn1cc(COc2ccc(N3C(=O)C(Oc4ccccc4)C3c3ccc([N+](=O)[O-])cc3)cc2)nn1 (stereo not drawn), the IC50 (Plasmodium falciparum [2]) was 850 nM.
Work on C=CCn1cc(COc2ccc(C3C(Oc4ccccc4)C(=O)N3c3ccccc3)cc2)nn1 (stereo not drawn) yielded an IC50 (Plasmodium falciparum [2]) of 850 nM.
Compound O=C(N/N=C/c1cn(-c2cc(Cl)cc(Cl)c2)nn1)c1ccncc1 has an IC50 (Plasmodium falciparum [1]) of 6960 nM.
C=CCn1cc(COc2ccc(C3C(Oc4ccc(Cl)cc4Cl)C(=O)N3c3ccc(OCc4cn(CC=C)nn4)cc3)cc2)nn1 (stereo not drawn) showed an IC50 (Plasmodium falciparum [2]) of 850 nM.
In the case of C(=N\Nc1ccccc1)/c1cnn(-c2ccccc2)n1, the IC50 (Plasmodium falciparum [1]) is reported as 2800 nM.
Compound CCOC(=O)Cn1cc(COc2ccc(C3C(OC)C(=O)N3c3ccc(OCc4cn(CC(=O)OCC)nn4)cc3)cc2)nn1 (stereo not drawn) has an IC50 (Plasmodium falciparum [2]) of 850 nM.
In the case of O=C1C(Oc2ccccc2)C(c2ccc(OCc3cn(Cc4ccccc4)nn3)cc2)N1c1ccccc1 (stereo not drawn), the IC50 (Plasmodium falciparum [2]) is reported as 850 nM.
Compound CCCCOCc1cn(-c2cc(Cl)cc(Cl)c2)nn1 has an IC50 (Plasmodium falciparum [1]) of 2800 nM.
In the case of O=C1C(Oc2ccccc2)C(c2ccc(OCc3cn(Cc4ccccc4)nn3)cc2)N1c1ccc(OCc2cn(Cc3ccccc3)nn2)cc1 (stereo not drawn), the IC50 (Plasmodium falciparum [2]) is reported as 970 nM.
With COc1ccc(-n2cc(/C=N/Nc3ccc(Cl)cc3)nn2)cc1 the IC50 (Plasmodium falciparum [1]) was 2800 nM.
Work on Cc1ccc(COC(=O)Cn2cc(CSc3ccc(Br)cc3)nn2)cc1 yielded an IC50 (Plasmodium falciparum [5]) of 178 nM.
Work on O=C1C(Oc2ccc(Cl)cc2Cl)C(c2ccc(OCc3cn(Cc4ccccc4)nn3)cc2)N1c1ccc(OCc2cn(Cc3ccccc3)nn2)cc1 (stereo not drawn) yielded an IC50 (Plasmodium falciparum [2]) of 970 nM.
With COc1cccc(C2C(Oc3ccccc3)C(=O)N2c2ccc(OCc3cn(Cc4ccccc4)nn3)cc2)c1 (stereo not drawn) the IC50 (Plasmodium falciparum [2]) was 850 nM.
With C=C[C@H]1CN2CC[C@H]1C[C@@H]2[C@@H](c1ccnc2ccc(OC)cc12)n1cc(CCCCCC)nn1 the IC50 (Plasmodium falciparum [7]) was 280 nM.
With C=C[C@H]1CN2CC[C@H]1C[C@@H]2[C@@H](c1ccnc2ccc(OC)cc12)n1cc(CCCCCCCCCCCCCC)nn1 the IC50 (Plasmodium falciparum [7]) was 280 nM.
With C=C[C@H]1CN2CC[C@H]1C[C@@H]2[C@@H](c1ccnc2ccc(OC)cc12)n1cc(C[C@H](N)C(=O)O)nn1 the IC50 (Plasmodium falciparum [7]) was 250 nM.
Work on C=C[C@H]1CN2CC[C@H]1C[C@@H]2[C@@H](c1ccnc2ccc(OC)cc12)n1cc(CN2CCCC2C(=O)OCC)nn1 (stereo partly drawn) yielded an IC50 (Plasmodium falciparum [7]) of 330 nM.
